Source: US11491232B2, “Lactuloside compounds and preparation and use thereof” (Fruithy Holdings Limited, priority 2017, dated 2022)

Legend:
[1] = Test on stability in mediums in vitro (buffer solutions with different pH, simulated intestinal fluid, simulated gastric fluid); format: physicochemical
Procedure: At 37° C., Compound 17 was incubated in different mediums (buffer solutions with different pH, a simulated intestinal fluid containing pancreatin, and simulated gastric fluid containing pepsin).
(§1) Other typical example compounds were tested for stability according to the above method, and the test results are shown in Table 8 below.

[2] = tested on: colon flora; assay: Stability in the presence of colon flora (content in colon of rat); format: in vitro ADME, SD rat
Procedure: A phosphate buffer solution with a pH of 7.0 was formulated, and then CO2 was introduced to the solution to adjust the pH to 6.8. Then, the content in colon of a male SD rat (body weight: 180-220 g) was placed in a water bath at 37° C., and added into the phosphate buffer solution with a pH of 6.8 as prepared above under the protection of N2 to a concentration of 20% (w/v). The buffer solution was kept in an oxygen-free environment. Then, the test Compound 17 was added to the buffer solution, and the solution was stirred uniformly.
Supernatant was analyzed with HPLC, where the amount of each ingredient was calculated by normalization.
Note: in the above table, “T14.148 (%)” represents the percentage of peak area of the material with a retention time of 14.148 min “T14.713 (%)” represents the percentage of peak area of the material with a retention time of 14.713 min. “T16.392 (%)” represents the percentage of peak area of the material with a retention time of 16.392 min. “T22.624 (%)” represents the percentage of peak area of the material with a retention time of 22.624 min.
as §1

[3] = Simulated intestinal fluid (containing pancreatin) (pH 6.8) (8 h)
[4] = Content in colon (pH 6.8) (1 h)
[5] = male, Sprague-Dawley (SD), rat, 1 h, pH 6.8

SMILES: COCCCN1CCC(NC(=O)c2cc(Cl)c(NC3(CO)O[C@H](CO)[C@@H](O[C@@H]4O[C@H](CO)[C@H](O)[C@H](O)[C@H]4O)[C@@H]3O)c3c2OCC3)CC1 (stereo partly drawn) [Compound 14, 5-chloro-2,3-dihydro-4-{[4-O-(β-D-galactopyranosyl)-D-fructofuranosyl]amino}-N-[1-(3-methoxypropyl)-4-piperidinyl]-7-benzofurancarboxamide]
- Percentage of the example compound remaining (Composition, %) [1, 3]: 98.3%
- Percentage of the released active drug (prednisolone, dexamethasone, budesonide, apremilast or prucalopride) (Composition, %) [1, 3]: 1.1%
- Percentage of the released active drug (prednisolone, dexamethasone, budesonide, apremilast or prucalopride) (Composition, %) ([1]; Water (pH 1.2) (2 h)): 99.5%
- Percentage of the example compound remaining (Composition, %) [2, 4]: 2.1%

SMILES: CCCC1O[C@@H]2C[C@H]3[C@@H]4CCC5=CC(=O)C=C[C@]5(C)[C@H]4[C@@H](O)C[C@]3(C)[C@]2(C(=O)COC2(CO)O[C@H](CO)C(O[C@@H]3OC(CO)[C@H](O)C(O)C3O)C2O)O1 (stereo partly drawn) [Compound 7, (11β,16α)-11-hydroxyl-16,17-(butylidenedioxy)-21-{[4-O-(β-D-galactopyranosyl)-D-fructofuranosyl]oxy}pregna-1,4-diene-3,20-dione]
- Percentage of the example compound remaining (Composition, %) [1, 3]: 98.9%
- Percentage of the released active drug (prednisolone, dexamethasone, budesonide, apremilast or prucalopride) (Composition, %) [1, 3]: 0.1%
- Percentage of the example compound remaining (Composition, %) ([1]; Water (pH 1.2) (2 h)): 20.0%
- Percentage of the released active drug (prednisolone, dexamethasone, budesonide, apremilast or prucalopride) (Composition, %) ([1]; Water (pH 1.2) (2 h)): 61.6%
- Percentage of the example compound remaining (Composition, %) [2, 5]: 27.2%
- Percentage of the released active drug (prednisolone, dexamethasone, budesonide, apremilast or prucalopride) (Composition, %) [2, 5]: 45.9%

SMILES: COCCCN1CCC(N(C(=O)c2cc(Cl)c(N)c3c2OCC3)C2(CO)O[C@H](CO)C(O[C@@H]3OC(CO)[C@H](O)C(O)C3O)C2O)CC1 (stereo partly drawn) [Compound 13, 4-amino-5-chloro-2,3-dihydro-N-[1-(3-methoxypropyl)-4-piperidinyl]-N′-[4-O-(β-D-galactopyranosyl)-D-fructofuranosyl]-7-benzofurancarboxamide]
- Percentage of the example compound remaining (Composition, %) [1, 3]: 99.4%
- Percentage of the released active drug (prednisolone, dexamethasone, budesonide, apremilast or prucalopride) (Composition, %) [1, 3]: 0%
- Percentage of the example compound remaining (Composition, %) ([1]; Water (pH 1.2) (2 h)): 4.4%
- Percentage of the released active drug (prednisolone, dexamethasone, budesonide, apremilast or prucalopride) (Composition, %) ([1]; Water (pH 1.2) (2 h)): 95.0%
- Percentage of the example compound remaining (Composition, %) [2, 4]: 18.7%

SMILES: CCOc1cc([C@@H](CS(C)(=O)=O)N2C(=O)c3cccc(N(C(C)=O)C4(CO)O[C@H](CO)C(O[C@@H]5OC(CO)[C@H](O)C(O)C5O)C4O)c3C2=O)ccc1OC (stereo partly drawn) [Compound 12, N-{2-[(S)-1-(3-ethoxy-4-methoxyphenyl)-2-(methylsulfonyl)ethyl]-1,3-dioxo-2,3-dihydro-1H-isoindol-4-yl}-N′-[4-O-(β-D-galactopyranosyl)-D-fructofuranosyl]acetamide]
- Percentage of the example compound remaining (Composition, %) [1, 3]: 100%
- Percentage of the released active drug (prednisolone, dexamethasone, budesonide, apremilast or prucalopride) (Composition, %) [1, 3]: 0%
- Percentage of the example compound remaining (Composition, %) ([1]; Water (pH 1.2) (2 h)): 20.0%
- Percentage of the released active drug (prednisolone, dexamethasone, budesonide, apremilast or prucalopride) (Composition, %) ([1]; Water (pH 1.2) (2 h)): 79.8%
- Percentage of the example compound remaining (Composition, %) [2, 4]: 30.1%
